Source: ChEMBL document CHEMBL2157948, “Design, synthesis, and structure-activity-relationship of phenyl imidazoles as potent Smoothened antagonists” (Bioorg Med Chem Lett, 2012)
Values after ≈ are worked out from the molar mass of the structure shown.

What was measured:
[1] = Volume of distribution at steady state in rat at 3 to 30 mg/kg; format: ADME, organism-based; parameters: dose 3-30 mg/kg; conditions: in vivo, read-out: Vdss
[2] = Ratio of drug uptake in brain to plasma in mouse; format: ADME, organism-based; conditions: read-out: BPR
[3] = Aqueous solubility of the compound at pH 1; format: physicochemical
[4] = Mean residence time in mouse; format: ADME, organism-based; conditions: in vivo
Mus musculus [5] = experiment: Dose normalised AUC in po dosed mouse; format: ADME, organism-based; conditions: in vivo
[6] = Mean residence time in rat at 3 to 30 mg/kg; format: ADME, organism-based; parameters: dose 3-30 mg/kg; conditions: in vivo
[7] = Oral bioavailability in rat at 3 to 30 mg/kg; format: ADME, organism-based; conditions: in vivo
[8] = Aqueous solubility of the compound at pH 7; format: physicochemical
Protein smoothened [9] = biological target: Protein smoothened (Homo sapiens, UniProt Q99835); experiment: Antagonist activity at human Smo expressed in CHO cells assessed as inhibition of BODIPY-cyclopamine binding after 4 hrs by fluorescence assay; format: cell-based
Sequence of Protein smoothened (Homo sapiens, UniProt Q99835) (Q99835 whole entry): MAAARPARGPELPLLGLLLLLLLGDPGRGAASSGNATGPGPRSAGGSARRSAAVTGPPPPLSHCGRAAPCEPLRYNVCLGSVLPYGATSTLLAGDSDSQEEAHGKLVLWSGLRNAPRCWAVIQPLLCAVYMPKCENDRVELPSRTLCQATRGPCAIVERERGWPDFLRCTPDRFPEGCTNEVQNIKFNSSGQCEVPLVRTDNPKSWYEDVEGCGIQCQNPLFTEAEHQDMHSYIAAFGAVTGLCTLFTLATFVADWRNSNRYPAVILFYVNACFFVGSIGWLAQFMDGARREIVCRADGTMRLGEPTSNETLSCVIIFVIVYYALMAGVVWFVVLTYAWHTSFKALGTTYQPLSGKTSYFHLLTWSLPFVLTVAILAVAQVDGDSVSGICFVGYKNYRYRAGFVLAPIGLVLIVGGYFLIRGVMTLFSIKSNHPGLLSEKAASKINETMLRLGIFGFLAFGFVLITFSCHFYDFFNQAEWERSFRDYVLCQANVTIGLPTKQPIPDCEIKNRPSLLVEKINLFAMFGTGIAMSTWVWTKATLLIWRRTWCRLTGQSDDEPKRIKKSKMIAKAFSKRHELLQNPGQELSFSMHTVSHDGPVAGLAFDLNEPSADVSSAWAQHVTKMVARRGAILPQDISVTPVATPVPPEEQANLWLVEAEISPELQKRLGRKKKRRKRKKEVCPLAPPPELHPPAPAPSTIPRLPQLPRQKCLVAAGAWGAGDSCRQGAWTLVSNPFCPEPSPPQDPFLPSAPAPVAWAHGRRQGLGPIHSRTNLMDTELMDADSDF

[10] = Plasma protein binding in rat; format: ADME, cell-free; conditions: read-out: PPB (converted)
[11] = Volume of distribution at steady state in mouse; format: ADME, organism-based; conditions: in vivo, read-out: Vdss
[12] = Plasma protein binding in human; format: ADME, cell-free; conditions: read-out: PPB (converted)
[13] = Clearance in mouse; format: ADME, organism-based; conditions: in vivo
Protein smoothened [14] = biological target: T1, Protein smoothened (Mus musculus, UniProt P56726); experiment: Antagonist activity at Smo in mouse TM3 cells expressing Hh12 assessed as inhibition of 1 nM Ag1.5-induced Gli expression incubated for 30 mins prior to Ag1.5-induction measured after 48 hrs by luciferase reporter gene assay; format: functional, cell-based
T1 sequence (P56726 whole entry): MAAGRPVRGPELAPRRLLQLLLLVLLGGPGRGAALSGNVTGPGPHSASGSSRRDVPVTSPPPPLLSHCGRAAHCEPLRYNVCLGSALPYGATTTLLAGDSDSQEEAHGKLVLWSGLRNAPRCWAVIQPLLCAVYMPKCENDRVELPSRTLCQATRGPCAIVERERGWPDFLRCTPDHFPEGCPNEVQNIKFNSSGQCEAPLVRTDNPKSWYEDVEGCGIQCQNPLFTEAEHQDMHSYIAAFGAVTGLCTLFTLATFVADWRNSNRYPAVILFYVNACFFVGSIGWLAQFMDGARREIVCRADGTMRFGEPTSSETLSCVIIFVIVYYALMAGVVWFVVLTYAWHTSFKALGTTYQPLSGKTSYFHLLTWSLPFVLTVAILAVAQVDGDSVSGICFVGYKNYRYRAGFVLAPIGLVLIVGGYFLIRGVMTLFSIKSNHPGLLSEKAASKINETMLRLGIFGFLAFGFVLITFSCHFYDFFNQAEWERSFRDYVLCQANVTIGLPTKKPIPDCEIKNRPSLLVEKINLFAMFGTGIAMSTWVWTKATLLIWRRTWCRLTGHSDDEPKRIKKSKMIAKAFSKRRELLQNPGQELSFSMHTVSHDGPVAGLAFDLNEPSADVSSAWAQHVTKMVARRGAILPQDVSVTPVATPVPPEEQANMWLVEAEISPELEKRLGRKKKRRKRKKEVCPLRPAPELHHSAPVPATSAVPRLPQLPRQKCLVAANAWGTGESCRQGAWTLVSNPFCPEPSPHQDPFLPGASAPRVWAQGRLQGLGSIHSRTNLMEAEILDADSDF

Protein smoothened [15] = biological target: T1, Protein smoothened; experiment: Antagonist activity at Smo in mouse TM3 cells expressing Hh12 assessed as inhibition of 25 nM Ag1.5-induced Gli expression incubated for 30 mins prior to Ag1.5-induction measured after 48 hrs by luciferase reporter gene assay; format: functional, cell-based
[16] = Oral bioavailability in mouse; format: ADME, organism-based; conditions: in vivo
[17] = Permeability of the compound by PAMPA assay; format: ADME
[18] = Clearance in rat at 3 to 30 mg/kg; format: ADME, organism-based; parameters: dose 3-30 mg/kg; conditions: in vivo
Protein smoothened [19] = biological target: T1, Protein smoothened; experiment: Antagonist activity at mouse Smo expressed in CHO cells assessed as inhibition of BODIPY-cyclopamine binding after 4 hrs by fluorescence assay; format: cell-based
Mus musculus [20] = experiment: Clearance in po dosed mouse; format: ADME, organism-based; conditions: in vivo

Structure (SMILES) | AUC/dose (Mus musculus [5]) [nM·h] | IC50 (Protein smoothened [14]) [nM] | IC50 (Protein smoothened [15]) [nM] | clearance (Mus musculus [20]) [mL/min/kg] | other results
C[C@@H]1CN(c2ccc3c(Nc4ccc(Cl)c(-c5ncc(-c6ccccc6)[nH]5)c4)nccc3n2)CCO1 | 881 | 0.6 | 11 | 32 | Vd [1]: 1 L/kg; Kp [2]: 0.4; solubility [3]: 93 µg/mL (≈ 187 µM); MRT [4]: 0.56 h; MRT [6]: 3.33 h; bioavailability [7]: 53%; solubility [8]: < 1 µg/mL; IC50 (Protein smoothened [9]): 4 nM; fraction unbound [10]: 0.015; Vd [11]: 1.07 L/kg; fraction unbound [12]: 0.039; clearance [13]: 32 mL/min/kg; bioavailability [16]: 82%; permeability [17]: permeable; clearance [18]: 5 mL/min/kg; IC50 (Protein smoothened [19]): 1.6 nM
C[C@@H]1CN(c2ccc3c(Nc4ccc(Cl)c(-c5nc(-c6ccccc6)c[nH]5)c4)nccc3n2)C[C@H](C)O1 | 268 | 0.2 | 6 | 33.1 | 
C[C@@H]1CN(c2cnc3c(Nc4ccc(Cl)c(-c5nc(-c6ccccc6)c[nH]5)c4)cccc3n2)C[C@H](C)O1 |  | 3 | 35 |  | 
C[C@@H]1CN(c2ccc3c(Nc4ccc(Cl)c(-c5ncc(-c6ccccc6)[nH]5)c4)cccc3n2)C[C@H](C)O1 | 492 | 0.3 | 5 |  | 
C[C@@H]1CN(c2ccc3c(Nc4ccc(Cl)c(-c5nc(-c6ccccc6)c[nH]5)c4)ccnc3c2)C[C@H](C)O1 | 0 | 0.4 | 8 |  | 
C[C@@H]1CN(c2ccc3c(Nc4ccc(Cl)c(-c5ncc(-c6ccccc6)[nH]5)c4)nccc3c2)C[C@H](C)O1 | 499 |  |  | 24.7 | 
O=S1(=O)CCN(c2ccc3c(Nc4ccc(Cl)c(-c5nc(-c6ccccc6)c[nH]5)c4)nccc3c2)CC1 |  | 2 | 31 |  | 
C[C@@H]1CN(c2ccc3c(Nc4ccc(Cl)c(-c5ncc(-c6ccccc6)[nH]5)c4)nccc3c2)CCO1 | 533 | 0.1 | 1.6 | 30.9 | 
Clc1ccc(Nc2nccc3ccccc23)cc1-c1ncc(-c2ccccc2)[nH]1 |  | 19 | 157 |  | 
Clc1ccc(Nc2nccc3cc(N4CCOCC4)ccc23)cc1-c1ncc(-c2ccccc2)[nH]1 | 101 | 0.1 | 2.6 |  | 
Cc1ccc(NC(=O)c2ccc(N3CCOCC3)cc2)cc1-c1nc(-c2ccccc2)c[nH]1 |  | 0.2 |  |  | 
